Among the test systems are DU-145 prostate; MCF7 breast; KM12 colon; A498 renal; OVCAR-3 ovarian; UACC-257 melanoma; PC-3 prostate; NCI-H522 lung; UACC-62 melanoma; SK-MEL-2 melanoma.
Assay in all cases: DTP human tumour cell line panel, 48 h

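Each compound was tested at five concentrations against cells in 96-well plates for 48 hours. GI50 = concentration required for 50% inhibition of growth. TGI marks complete inhibition of growth.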 *1 amine or outer side, *2 acyl side, *3 side chain or, on linkers, in order; H or OH if unused. Where a SMILES comes first, the peptide text is derived from it. [ ]: non-standard residue; d: D form. X32 = C[C@H](N[*:1])C(=O)C(C)(C)C(=O)[*:2]; Hmpa(2S,3S) = CC[C@H](C)[C@H](O)C(=O)O; NMeY = CN[C@@H](Cc1ccc(O)cc1)C(=O)O; NMeL = CN[C@@H](CC(C)C)C(=O)O; NMeV = CN[C@H](C(=O)O)C(C)C; βAla = NCCC(=O)O

`O=[N+]([O-])c1cc(-c2nc(-c3ccccc3)c(-c3ccccc3)[nH]2)c(O)c([N+](=O)[O-])c1`: the TGI is 55.4 µM with DU-145 prostate; 72.9 µM with MCF7 breast; 65.1 µM with KM12 colon; 40.5 µM with A498 renal; more than 100 µM with OVCAR-3 ovarian; 50.9 µM with UACC-257 melanoma. The concentration for total growth inhibition (TGI) worked out at 44.3 µM in the experiment with PC-3 prostate, 63.7 µM with NCI-H522 lung, 33.8 µM in the experiment with UACC-62 melanoma and 38.3 µM with SK-MEL-2 melanoma.

`CCCCCCCCCCNC(=O)CCC(NC(=O)c1ccc(N(C)Cc2cnc3nc(N)nc(N)c3n2)cc1)C(=O)NCCCCCCCCCC` (centres undefined): the TGI in the experiment with DU-145 prostate was more than 70.2 µM; in the experiment with MCF7 breast, 15.3 µM; in the experiment with KM12 colon, 16.2 µM; in the experiment with A498 renal, 73.5 µM; in the experiment with OVCAR-3 ovarian, 26.8 µM; with UACC-257 melanoma it was more than 60.1 µM. Besides, the TGI was 37.8 µM in the experiment on PC-3 prostate, 16.6 µM in the experiment with NCI-H522 lung, 49.5 µM with UACC-62 melanoma and 30.4 µM in the experiment on SK-MEL-2 melanoma.

As for `CCCCCCCCCCCCC(O)[C@H]1CC[C@H](C(O)CCCCCC(=O)CCCCC2CC(C(C)=O)C(=O)O2)O1` (some centres undefined), the TGI was more than 100 µM in the experiment on DU-145 prostate; more than 51.6 µM in the experiment with MCF7 breast; 24.3 µM in the experiment with KM12 colon; 36.6 µM in the experiment on A498 renal; 19.3 µM with OVCAR-3 ovarian; 19.1 µM with UACC-257 melanoma. Further, the total growth inhibition concentration (TGI) in the experiment on PC-3 prostate was determined as 28.1 µM; in the experiment with NCI-H522 lung, 25.6 µM; in the experiment with UACC-62 melanoma, 21.6 µM; with SK-MEL-2 melanoma, 28.3 µM. Besides, the GI50 in the experiment on MCF7 breast was 1.38 µM; in the experiment with KM12 colon, 4.2 µM; with A498 renal, 2.62 µM; in the experiment on OVCAR-3 ovarian, 2.25 µM; with UACC-257 melanoma it was 1.3 µM; in the experiment on PC-3 prostate, 3.55 µM. For the same compound, the GI50 with UACC-62 melanoma is 3.84 µM.

Consider `COC(=O)C1(C)C=CC(=O)C2(C)C1C(O)C1OC3CC(c4ccoc4)C(C)=C3C1(C)C2CC(=O)O` (centres undefined), for which the total growth inhibition concentration (TGI) in the experiment with DU-145 prostate, in the experiment on MCF7 breast, with KM12 colon, in the experiment on A498 renal, in the experiment on OVCAR-3 ovarian and with UACC-257 melanoma was more than 100 µM in each case. The total growth inhibition concentration (TGI) in the experiment with PC-3 prostate, with NCI-H522 lung, in the experiment on UACC-62 melanoma and with SK-MEL-2 melanoma was more than 100 µM throughout.

On to `Oc1ccc2c(c1)-c1c(c3ccccc3n1CCN1CCOCC1)CC2`, for which the TGI in the experiment on DU-145 prostate is more than 100 µM; with MCF7 breast it was more than 100 µM; in the experiment with KM12 colon, 51.3 µM; in the experiment with A498 renal, more than 100 µM; in the experiment with OVCAR-3 ovarian it was more than 100 µM; in the experiment with UACC-257 melanoma, 84.6 µM. The concentration for total growth inhibition (TGI) is more than 100 µM with PC-3 prostate, 81 µM with UACC-62 melanoma and 69.4 µM in the experiment on SK-MEL-2 melanoma.

On to `C=CCc1cccc2cc(C(=O)Nc3ccccn3)c(=N)oc12`, for which the TGI in the experiment with DU-145 prostate, with MCF7 breast, with KM12 colon, with A498 renal, in the experiment with OVCAR-3 ovarian and in the experiment with UACC-257 melanoma was more than 100 µM in each case. Besides, the TGI in the experiment with PC-3 prostate, with UACC-62 melanoma and with SK-MEL-2 melanoma was more than 100 µM each time.

As for `COI1NC(=O)c2ccccc21`, the TGI in the experiment with DU-145 prostate, with MCF7 breast, in the experiment with KM12 colon, with A498 renal, with OVCAR-3 ovarian and with PC-3 prostate was more than 100 µM in each case. Also, the TGI in the experiment with NCI-H522 lung, with UACC-62 melanoma and in the experiment with SK-MEL-2 melanoma was more than 100 µM each time.

For the compound `CC(=O)O[C@H]1[C@H](OC(=O)CC(C)(O)CC(=O)O)C[C@]2(C)C3=C(CCC2C1(C)C)[C@]1(C)CC[C@H]([C@H]2CC[C@H](C(C)(C)O)OC2O)[C@@]1(C)[C@@H](O)C3` (some centres undefined), the TGI with DU-145 prostate is 64.8 µM; in the experiment on MCF7 breast, 45.8 µM; in the experiment on KM12 colon, 38.6 µM; with A498 renal, 26.4 µM; in the experiment with OVCAR-3 ovarian, 30.4 µM; with UACC-257 melanoma it was 35.4 µM. For the same compound, the TGI with PC-3 prostate is 33.2 µM; in the experiment on UACC-62 melanoma it was 37 µM; in the experiment with SK-MEL-2 melanoma, 37.1 µM.

`CC(=O)c1cc2ccccc2oc1=O`: the concentration for total growth inhibition (TGI) in the experiment on DU-145 prostate, with MCF7 breast, in the experiment with KM12 colon, with A498 renal, with OVCAR-3 ovarian and in the experiment on UACC-257 melanoma was more than 100 µM throughout. In addition, the TGI with PC-3 prostate, with NCI-H522 lung and in the experiment with SK-MEL-2 melanoma was more than 100 µM each time.

On to `O=c1/c(=C/c2ccc(-c3ccc(Cl)cc3Cl)o2)sc2n1[C@@H](c1ccc(Cl)cc1)C=C(c1cc(F)c(Cl)cc1Cl)N=2`, for which the TGI with DU-145 prostate is more than 100 µM; in the experiment with MCF7 breast it was more than 100 µM; in the experiment with KM12 colon, more than 100 µM; in the experiment with A498 renal, 4.71 µM; with UACC-257 melanoma, more than 100 µM; in the experiment with PC-3 prostate, more than 100 µM. Also, the concentration for total growth inhibition (TGI) with NCI-H522 lung, in the experiment with UACC-62 melanoma and in the experiment with SK-MEL-2 melanoma was more than 100 µM in each case.

In the case of `CC[C@H](C)[C@@H]1OC(=O)CCNC(=O)[C@@H](C)NC(=O)C(C)(C)C(=O)[C@H](C)NC(=O)[C@H](Cc2ccc(OC)cc2)N(C)C(=O)[C@H](C(C)C)N(C)C(=O)CNC(=O)[C@H](CC(C)C)N(C)C(=O)CNC1=O` (cyclo(G[NMeL]G[NMeV][NMeY](Me)[X32][dA][βAla][Hmpa(2S,3S)])), the total growth inhibition concentration (TGI) is more than 39.2 µM in the experiment with DU-145 prostate; more than 50 µM in the experiment with MCF7 breast; 5.91 µM in the experiment on A498 renal; 14.3 µM with OVCAR-3 ovarian; more than 25.9 µM with UACC-257 melanoma; more than 31.5 µM in the experiment on PC-3 prostate. In addition, the TGI with NCI-H522 lung is more than 50 µM; with UACC-62 melanoma it was more than 50 µM; in the experiment with SK-MEL-2 melanoma, 6.48 µM.

Consider `Cc1nc2c(=O)n(C)ncc2[nH]1`, for which the concentration for total growth inhibition (TGI) in the experiment with DU-145 prostate, in the experiment with MCF7 breast, in the experiment with KM12 colon, with A498 renal, in the experiment with OVCAR-3 ovarian and in the experiment on UACC-257 melanoma was more than 100 µM throughout. For the same compound, the total growth inhibition concentration (TGI) in the experiment on PC-3 prostate, in the experiment with UACC-62 melanoma and in the experiment on SK-MEL-2 melanoma was more than 100 µM each time.

A word on the TGI: it is the concentration at which net growth stops. A low value points to greater sensitivity of the cells. Broadly, the GI50 is the concentration giving 50% growth inhibition.

The record behind these values is PubChem BioAssay (NCI).
